This note sets out measurements from ChEMBL document CHEMBL4118267, “Access to new highly potent antileukemia, antiviral and antimalarial agents via hybridization of natural products (homo)egonol, thymoquinone and artemisinin” (Bioorg Med Chem, 2018).

A value given as a limit tells only on which side of the number the result lay.

Assay [1] concerns Human betaherpesvirus 5. Briefly: Antiviral activity against GFP-fused Human cytomegalovirus AD169 infected in primary HFF. In kind it is functional, organism-based. To be noted: Human betaherpesvirus 5, AD169, HFF.
Assay [2] deals with ADR5000 cell line. Nature of the assay: Potency index, ratio of doxorubicin EC50 to compound EC50 for human CEM/ADR5000 cells over-expressing P-gp. It counts as functional.
Assay [3] has as its system ADR5000 cell line. Nature of the assay: Cytotoxicity against human CEM/ADR5000 cells over-expressing P-gp assessed as reduction in cell viability after 72 hrs by resazurin dye based assay. In kind it is functional. (In general: The colour change of resazurin is a common sign of viable cells or microbes.)
In another assay the test system is CCRF-CEM. Briefly: Cytotoxicity against human CCRF-CEM cells assessed as reduction in cell viability after 72 hrs by resazurin dye based assay. It counts as functional.
The test system of assay [4] is Plasmodium falciparum. Briefly: Antimalarial activity against Plasmodium falciparum 3D7 infected in human erythrocytes after 72 hrs by SYBR green dye fluorescence assay. It counts as functional, organism-based. To be noted: 3D7, 72 h.
Assay [5] concerns Human betaherpesvirus 5. Nature of the assay: Potency index, ratio of gancyclovir EC50 to compound EC50 for GFP-fused Human cytomegalovirus AD169 infected in primary HFF. In kind it is functional.
Assay [6] deals with Plasmodium falciparum. Nature of the assay: Potency index, ratio of artesunic acid EC50 to compound EC50 for Plasmodium falciparum 3D7 infected in human erythrocytes. It counts as functional.
Setting [7] is: Homo sapiens, ADR5000, 72 h, read-out: EC50.
[8] abbreviates: Homo sapiens, CCRF-CEM, 72 h, read-out: EC50.

As to `COc1cc(CCCOC(=O)CCC(=O)O[C@@H]2O[C@@H]3O[C@@]4(C)CC[C@H]5[C@H](C)CC[C@@H]([C@H]2C)[C@@]35OO4)cc2cc(-c3ccc4c(c3)OCO4)oc12`, the concentration giving a half-maximal response (EC50) in the assay with Human betaherpesvirus 5 [1] amounted to 0.87 µM; in the assay with ADR5000 cell line [3] (setting [7]), 1.12 µM; in the assay with CCRF-CEM (setting [8]), 0.18 µM. Besides, the “Ratio EC50” value with ADR5000 cell line [2] was “<=104”.

For `COc1ccc(-c2cc3cc(CCCO)cc(OC)c3o2)cc1OC`, the EC50 with Human betaherpesvirus 5 [1] is 1.28 µM; in the assay with ADR5000 cell line [3] (adr5000) it was “Not Active”; in the assay on Plasmodium falciparum [4], 26.5 µM; with CCRF-CEM (ccrf-cem), “Not Active”.

Regarding `COc1ccc(-c2cc3cc(CCCO[C@H]4O[C@@H]5O[C@@]6(C)CC[C@H]7[C@H](C)CC[C@@H]([C@H]4C)[C@@]57OO6)cc(OC)c3o2)cc1OC`, the EC50 in the assay on Human betaherpesvirus 5 [1] is 0.13 µM; in the assay on ADR5000 cell line [3] (setting [7]) it was 0.63 µM; in the assay on Plasmodium falciparum [4], 0.0065 µM; in the assay with CCRF-CEM (setting [8]), 0.072 µM. Besides, the “Ratio EC50” value is reported as “<=104” in the assay with ADR5000 cell line [2] and 20 with Human betaherpesvirus 5 [5].

In the case of `COc1cc(CCCO[C@H]2O[C@@H]3O[C@@]4(C)CC[C@H]5[C@H](C)CC[C@@H]([C@H]2C)[C@@]35OO4)cc2cc(-c3ccc4c(c3)OCO4)oc12`, the EC50 with Human betaherpesvirus 5 [1] was 0.17 µM; in the assay with ADR5000 cell line [3] (setting [7]) it was 0.4 µM; with Plasmodium falciparum [4], 0.0283 µM; in the assay with CCRF-CEM (setting [8]) it was 0.099 µM. Also, in the assay on ADR5000 cell line [2], the “Ratio EC50” value is listed as “<=104”.

Consider `COc1cc(CCCOC(=O)C[C@H]2O[C@@H]3O[C@@]4(C)CC[C@H]5[C@H](C)CC[C@@H]([C@H]2C)[C@@]35OO4)cc2cc(-c3ccc4c(c3)OCO4)oc12`, for which the EC50 in the assay with Human betaherpesvirus 5 [1] was determined as 0.24 µM; with ADR5000 cell line [3] (setting [7]), 0.582 µM; in the assay on Plasmodium falciparum [4], 0.0133 µM; in the assay with CCRF-CEM (setting [8]) it was 0.568 µM. In addition, the “Ratio EC50” value with ADR5000 cell line [2] is listed as “<=104”.

On to `C[C@H]1[C@H](OC(=O)CCC(=O)OCC#CCOC(=O)CCC(=O)O[C@@H]2O[C@@H]3O[C@@]4(C)CC[C@H]5[C@H](C)CC[C@@H]([C@H]2C)[C@@]35OO4)O[C@@H]2O[C@@]3(C)CC[C@H]4[C@H](C)CC[C@@H]1[C@@]24OO3`, for which the “Ratio EC50” value was 2 in the assay on Plasmodium falciparum [6] and 6 with Human betaherpesvirus 5 [5]. For the same compound, the EC50 came out at 0.94 µM in the assay with Human betaherpesvirus 5 [1] and 0.0038 µM in the assay with Plasmodium falciparum [4].

Regarding `COc1cc(CC/C=N/C2=C(C)C(=O)C=C(C(C)C)C2=O)cc2cc(-c3ccc4c(c3)OCO4)oc12`, in the assay on ADR5000 cell line [2], the “Ratio EC50” value was “<=104”. Further, the half-maximal effective concentration (EC50) in the assay with ADR5000 cell line [3] (setting [7]) came out at 17.4 µM; in the assay on Plasmodium falciparum [4], 1.19 µM; with CCRF-CEM (setting [8]) it was 43.7 µM.

`COc1cc(CCCOC(=O)CCCc2ccc(N(CCCl)CCCl)cc2)cc2cc(-c3ccc4c(c3)OCO4)oc12`: the EC50 came to 2.9 µM in the assay on Human betaherpesvirus 5 [1] and 23.2 µM in the assay with Plasmodium falciparum [4].

For `C[C@@H]1CC[C@H]2[C@@H](C)C(=O)O[C@@H]3O[C@@]4(C)CC[C@@H]1[C@]32OO4` [ARTEMISININ], the EC50 was 26.9 µM in the assay on ADR5000 cell line [3] (setting [7]) and 36.9 µM in the assay with CCRF-CEM (setting [8]).

For the compound `C[C@H]1[C@@H](O)O[C@@H]2O[C@@]3(C)CC[C@H]4[C@H](C)CC[C@@H]1[C@@]24OO3` [ARTENIMOL], the EC50 was > 10 µM in the assay with Human betaherpesvirus 5 [1], 0.265 µM with ADR5000 cell line [3] (setting [7]), 0.0024 µM in the assay on Plasmodium falciparum [4] and 0.085 µM in the assay on CCRF-CEM (setting [8]).

`C[C@H]1[C@H](OC(=O)CCC(=O)O)O[C@@H]2O[C@@]3(C)CC[C@H]4[C@H](C)CC[C@@H]1[C@@]24OO3` [ARTESUNATE]: the EC50 is 5.41 µM in the assay on Human betaherpesvirus 5 [1], 0.189 µM with ADR5000 cell line [3] (setting [7]), 0.0097 µM in the assay with Plasmodium falciparum [4] and 0.069 µM with CCRF-CEM (setting [8]).

As to `CCN(CC)CCCC(C)Nc1ccnc2cc(Cl)ccc12` (stereo unspecified) [CHLOROQUINE], in the assay with Plasmodium falciparum [4], the EC50 is 0.0098 µM.

Consider `COc1cccc2c1C(=O)c1c(O)c3c(c(O)c1C2=O)C[C@@](O)(C(=O)CO)C[C@@H]3O[C@H]1C[C@H](N)[C@H](O)[C@H](C)O1` [DOXORUBICIN], for which the EC50 with ADR5000 cell line [3] (setting [7]) worked out at 41.5 µM; in the assay with CCRF-CEM (setting [8]) it was 0.015 µM.

With `COc1cc(CCCO)cc2cc(-c3ccc4c(c3)OCO4)oc12` [EGONOL], the EC50 in the assay with Human betaherpesvirus 5 [1] was 2.38 µM; in the assay with ADR5000 cell line [3] (setting [7]) it was 26.8 µM; with Plasmodium falciparum [4] it was 7.5 µM; in the assay with CCRF-CEM (setting [8]) it was 24.7 µM.

In the assay with Human betaherpesvirus 5 [1], `Nc1nc2c(ncn2COC(CO)CO)c(=O)[nH]1` [GANCICLOVIR] registered an EC50 of 2.6 µM.

Consider `CC1=CC(=O)C(C(C)C)=CC1=O` [THYMOQUINONE], for which the EC50 was > 10 µM with Human betaherpesvirus 5 [1], 0.3 µM in the assay with ADR5000 cell line [3] (setting [7]), > 80 µM with Plasmodium falciparum [4] and 0.3 µM in the assay with CCRF-CEM (setting [8]).

What is called EC50 is the concentration needed to bring the measured effect to its halfway point.
